In patent publication US20040156869A1, “2-substituted quinazolin-4-ylamine analogues” (Neurogen Corporation, priority 2002, published 2004):

Molecular target: human capsaicin receptor (VR1) (Homo sapiens, UniProt Q8NER1)
Experiment: Capsaicin receptor binding assay ([3H]RTX competition, VR1-transfected HEK293 membranes)

human capsaicin receptor (VR1), sequence (Q8NER1 whole entry): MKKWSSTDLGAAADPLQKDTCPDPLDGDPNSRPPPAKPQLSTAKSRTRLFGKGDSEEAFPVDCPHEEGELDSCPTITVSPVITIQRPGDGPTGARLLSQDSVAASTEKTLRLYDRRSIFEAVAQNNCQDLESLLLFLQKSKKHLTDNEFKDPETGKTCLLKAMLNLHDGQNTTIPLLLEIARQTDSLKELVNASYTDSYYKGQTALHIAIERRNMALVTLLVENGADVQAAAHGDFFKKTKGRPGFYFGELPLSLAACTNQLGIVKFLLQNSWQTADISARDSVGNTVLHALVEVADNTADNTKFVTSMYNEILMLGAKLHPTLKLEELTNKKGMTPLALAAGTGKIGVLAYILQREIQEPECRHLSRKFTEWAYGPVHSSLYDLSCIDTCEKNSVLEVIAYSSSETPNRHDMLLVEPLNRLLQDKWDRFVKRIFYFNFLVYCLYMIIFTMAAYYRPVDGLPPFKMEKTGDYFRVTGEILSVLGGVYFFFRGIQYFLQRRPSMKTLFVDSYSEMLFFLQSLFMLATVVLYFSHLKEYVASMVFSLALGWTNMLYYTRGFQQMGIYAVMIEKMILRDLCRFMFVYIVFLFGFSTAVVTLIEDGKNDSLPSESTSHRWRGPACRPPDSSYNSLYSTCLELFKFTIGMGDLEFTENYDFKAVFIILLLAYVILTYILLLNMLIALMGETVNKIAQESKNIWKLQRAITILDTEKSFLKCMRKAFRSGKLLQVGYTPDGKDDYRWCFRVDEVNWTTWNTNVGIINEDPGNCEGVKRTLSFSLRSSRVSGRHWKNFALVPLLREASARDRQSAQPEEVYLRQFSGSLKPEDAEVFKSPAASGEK

Ki, < 1 µM:
CCOCc1nc(Nc2ccc(C(C)C(F)(F)F)cc2)c2ccc(-c3ncccc3Cl)nc2n1 (centres unmarked) [Compound 136, [7-(3-Chloro-pyridin-2-yl)-2-ethoxymethyl-pyrido[2,3-d]pyrimidin-4-yl]-[4-(2,2,2-trifluoro-1-methyl-ethyl)-phenyl]-amine]
CCOCc1cc(Nc2ccc(C(F)(F)F)cc2)c2ccc(-c3ncccc3C(F)(F)F)nc2n1 [Compound 310, [2-Ethoxymethyl-7-(3-trifluoromethyl-pyridin-2-yl)-[1,8]naphthyridin-4-yl]-(4-trifluoromethyl-phenyl)-amine]
C[C@@H]1CN(Cc2nc(Nc3ccc(C(C)(C)C)cc3)c3ccc(-c4ncccc4Cl)cc3n2)CCO1 [Compound 672, (R)-(4-tert-Butyl-phenyl)-[7-(3-chloro-pyridin-2-yl)-2-(2-methyl-morpholin-4-ylmethyl)-quinazolin-4-yl]-amine]
OC1CCCN(Cc2nc(Nc3ccc(C(F)(F)F)cc3)c3ccc(-c4ncccc4C(F)(F)F)cc3n2)C1 (centres unmarked) [Compound 499, 1-[4-(4-Trifluoromethyl-phenylamino)-7-(3-trifluoromethyl-pyridin-2-yl)-quinazolin-2-ylmethyl]-piperidin-3-ol]
COCc1nc(Nc2ccc(C(C)(C)COC)cc2)c2ccc(-c3ncccc3C(F)(F)F)cc2n1 [Compound 36, [4-(2-Methoxy-1,1-dimethyl-ethyl)-phenyl]-[2-methoxymethyl-7-(3-trifluoromethyl-pyridin-2-yl)-quinazolin-4-yl]-amine]
CC1(C)CN(Cc2nc(Nc3ccc(C(F)(F)F)cc3)c3ccc(-c4ncccc4C(F)(F)F)cc3n2)CCO1 [Compound 739, [2-(2,2-Dimethyl-morpholin-4-ylmethyl)-7-(3-trifluoromethyl-pyridin-2-yl)-quinazolin-4-yl]-(4-trifluoromethyl-phenyl)-amine]
COCCOCc1nc(Nc2ccc(C(C)(C)C)cc2)c2ccc(-c3ncccc3Cl)nc2n1 [Compound 75, (4-tert-Butyl-phenyl)-[7-(3-chloro-pyridin-2-yl)-2-(2-methoxy-ethoxymethyl)-pyrido[2,3-d]pyrimidin-4-yl]-amine]
Cc1cccnc1-c1ccc2c(Nc3ccc(C(C)C)cc3)nc(CN3CCOCC3)nc2c1 [Compound 712, (4-Isopropyl-phenyl)-[7-(3-methyl-pyridin-2-yl)-2-morpholin-4-ylmethyl-quinazolin-4-yl]-amine]
CC(C)c1ccc(Nc2nc(C3CCN(C)CC3)nc3nc(-c4ncccc4Cl)ccc23)cc1 [Compound 770, [7-(3-Chloro-pyridin-2-yl)-2-(1-methyl-piperidin-4-yl)-pyrido[2,3-d]pyrimidin-4-yl]-(4-isopropyl-phenyl)-amine]
C=C(C)CN(CC)Cc1nc(Nc2ccc(C(F)(F)F)cc2)c2ncc(-c3ncccc3C(F)(F)F)cc2n1 [Compound 667, [2-{[Ethyl-(2-methyl-allyl)-amino]-methyl}-7-(3-trifluoromethyl-pyridin-2-yl)-pyrido[3,2-d]pyrimidin-4-yl]-(4-trifluoromethyl-phenyl)-amine]
CCCCCCN(C)CCc1nc(Nc2ccc(C(F)(F)F)cc2)c2ccc(-c3ncccc3C(F)(F)F)cc2n1 [Compound 419, [2-[(Hexyl-methyl-amino)-ethyl]-7-(3-trifluoromethyl-pyridin-2-yl)-quinazolin-4-yl]-(4-trifluoromethyl-phenyl)-amine]
COCc1nc(Nc2ccc(OC(F)(F)F)cc2)c2ccc(-c3ncccc3C)nc2n1 [Compound 196, [2-Methoxymethyl-7-(3-methyl-pyridin-2-yl)-pyrido[2,3-d]pyrimidin-4-yl]-(4-trifluoromethoxy-phenyl)-amine]
C[C@@H]1CN(Cc2nc(Nc3ccc(C#N)cc3)c3ccc(-c4ncccc4Cl)cc3n2)C[C@@H](C)O1 [Compound 630, (R,R)-4-[7-(3-Chloro-pyridin-2-yl)-2-(2,6-dimethyl-morpholin-4-ylmethyl)-quinazolin-4-ylamino]-benzonitrile]
COC(=O)[C@@H](OCc1nc(Nc2ccc(C(C)(C)C)cc2)c2ccc(-c3ncccc3C(F)(F)F)cc2n1)C(C)C [Compound 228, 2-[4-(4-tert-Butyl-phenylamino)-7-(3-trifluoromethyl-pyridin-2-yl)-quinazolin-2-ylmethoxy]-3-methyl-butyric acid methyl ester (S)]
O=C(c1nc(Nc2ccc(C(F)(F)F)cc2)c2ccc(-c3ncccc3C(F)(F)F)nc2n1)N1CCN(C2CCCC2)CC1 [Compound 473, (4-Cyclopentyl-piperazin-1-yl)-[4-(4-trifluoromethyl-phenylamino)-7-(3-trifluoromethyl-pyridin-2-yl)-pyrido[2,3-d]pyrimidin-2-yl]-methanone]
CN(C)CCCOCc1nc(Nc2ccc(C(F)(F)F)cc2)c2ccc(-c3ncccc3C(F)(F)F)cc2n1 [Compound 89, [2-(3-Dimethylamino-propoxymethyl)-7-(3-trifluoromethyl-pyridin-2-yl)-quinazolin-4-yl]-(4-trifluoromethyl-phenyl)-amine]
CC1CC(C)CN(Cc2nc(Nc3ccc(C(F)(F)F)nc3)c3ccc(-c4ncccc4C(F)(F)F)cc3n2)C1 (centres unmarked) [Compound 387, [2-(3,5-Dimethyl-piperidin-1-ylmethyl)-7-(3-trifluoromethyl-pyridin-2-y)-quinazolin-4-yl]-(6-trifluoromethyl-pyridin-3-yl)-amine]
CN(C)CCCOCc1nc(Nc2ccc(C(C)(C)C)cc2)c2ccc(-c3ncccc3C(F)(F)F)cc2n1 [Compound 116, (4-tert-Butyl-phenyl)-[2-(3-dimethylamino-propoxymethyl)-7-(3-trifluoromethyl-pyridin-2-yl)-quinazolin-4-yl]-amine]
COCc1nc(Nc2ccc(C3CC3)cc2)c2ccc(-c3ncccc3C(F)(F)F)cc2n1 [Compound 118, (4-Cyclopropyl-phenyl)-[2-methoxymethyl-7-(3-trifluoromethyl-pyridin-2-yl)-quinazolin-4-yl]-amine]
CC(C)c1ccc(Nc2nc(COC3CCOCC3)nc3cc(-c4ncccc4C(F)(F)F)ccc23)cc1 [Compound 101, (4-Isopropyl-phenyl)-[2-(tetrahydro-pyran-4-yloxymethyl)-7-(3-trifluoromethyl-pyridin-2-yl)-quinazolin-4-yl]-amine]
COCCNC(=O)c1nc(Nc2ccc(C(F)(F)F)cc2)c2ccc(-c3ncccc3C(F)(F)F)nc2n1 [Compound 455, 4-(4-Trifluoromethyl-phenylamino)-7-(3-trifluoromethyl-pyridin-2-yl)-pyrido[2,3-d]pyrimidine-2-carboxylic acid (2-methoxy-ethyl)-amide]
Cc1ccc(Nc2nc(COCC(C)C)nc3nc(-c4ncccc4C(F)(F)F)ccc23)cc1C(F)(F)F [Compound 276, [2-Isobutoxymethyl-7-(3-trifluoromethyl-pyridin-2-yl)-pyrido[2,3-d]pyrimidin-4-yl]-(4-methyl-3-trifluoromethyl-phenyl)-amine]
CC(C)c1ccc(Nc2nc(CN3CCO[C@H](C)C3)nc3cc(-c4ncccc4C(F)(F)F)ccc23)cc1 [Compound 684, (R)-(4-Isopropyl-phenyl)-[2-(2-methyl-morpholin-4-ylmethyl)-7-(3-trifluoromethyl-pyridin-2-yl)-quinazolin-4-yl]-amine]
CC1(C)CCCC(NC(=O)c2nc(Nc3ccc(C(F)(F)F)cc3)c3ccc(-c4ncccc4C(F)(F)F)nc3n2)C1 (centres unmarked) [Compound 468, 4-(4-Trifluoromethyl-phenylamino)-7-(3-trifluoromethyl-pyridin-2-yl)-pyrido[2,3-d]pyrimidine-2-carboxylic acid (3,3-dimethyl-cyclohexyl)-amide]
CC(C)(C)c1ccc(Nc2nc(CN3CCC[C@H]3C(=O)O)nc3cc(-c4ncccc4C(F)(F)F)cnc23)cc1 [Compound 752, (S)-1-[4-(4-tert-Butyl-phenylamino)-7-(3-trifluoromethyl-pyridin-2-yl)-pyrido[3,2-d]pyrimidin-2-ylmethyl]-pyrrolidine-2-carboxylic acid]
CCOCc1nc(Nc2ccc(C(C)C)cc2)c2ccc(-c3ncccc3Cl)nc2n1 [Compound 133, [7-(3-Chloro-pyridin-2-yl)-2-ethoxymethyl-pyrido[2,3-d]pyrimidin-4-yl]-(4-isopropyl-phenyl)-amine]
CCCCN(C)Cc1nc(Nc2ccc(C(F)(F)F)cc2)c2ccc(-c3ncccc3C(F)(F)F)cc2n1 [Compound 331]
CCOCc1nc(Nc2ccc(C(C)(C)C)cc2)c2ccc(-c3ncccc3Cl)nc2n1 [Compound 132, (4-tert-Butyl-phenyl)-[7-(3-chloro-pyridin-2-yl)-2-ethoxymethyl-pyrido[2,3-d]pyrimidin-4-yl]-amine]
COC(=O)c1ccc(Nc2nc(COCC(C)C)nc3nc(-c4ncccc4Cl)ccc23)cc1 [Compound 267, 4-[7-(3-Chloro-pyridin-2-yl)-2-isobutoxymethyl-pyrido[2,3-d]pyrimidin-4-ylamino]-benzoic acid methyl ester]
CC1(C)CCCN(Cc2nc(Nc3ccc(C(F)(F)F)nc3)c3ccc(-c4ncccc4C(F)(F)F)cc3n2)C1 [Compound 556, [2-(3,3-Dimethyl-piperidin-1-ylmethyl)-7-(3-trifluoromethyl-pyridin-2-yl)-quinazolin-4-yl]-(6-trifluoromethyl-pyridin-3-yl)-amine]
CN1CCC(c2nc(Nc3ccc(C(F)(F)F)cc3)c3ccc(-c4ncccc4Cl)nc3n2)CC1 [Compound 771, [7-(3-Chloro-pyridin-2-yl)-2-(1-methyl-piperidin-4-yl)-pyrido[2,3-d]pyrimidin-4-yl]-(4-trifluoromethyl-phenyl)-amine]
COCc1nc(Nc2ccc(C3(C(=O)N4C[C@@H](C)O[C@@H](C)C4)CCC3)cc2)c2ccc(-c3ncccc3C(F)(F)F)nc2n1 [Compound 160, (2,6-Dimethyl-morpholin-4-yl)-(1-{4-[2-methoxymethyl-7-(3-trifluoromethyl-pyridin-2-yl)-pyrido[2,3-d]pyrimidin-4-ylamino]-phenyl}-cyclobutyl)-methanone]
